Data reported in US12448433B2, “Human ApoB100 epitopes, methods and uses for modulating inflammatory responses, and treating adverse cardiovascular events, disease and atherosclerosis” (LA JOLLA INSTITUTE FOR ALLERGY AND IMMUNOLOGY, priority 2015, dated 2025).
pIC50: −log10 of the molar value.

How the values were obtained:
DQB1*06:02 = test: Peptide binding to HLA-DQ allele, competition assay; parameters: species or system human
Source text: (§1) Peptide binding to MHC-II requires anchor residues in certain positions and thus can be predicted using computer algorithms. Affinity can be measured experimentally using a competition assay (1). Both are excellent screening tools. However, affinity must be measured separately for each MHC-II allele. Humans express molecules encoded in four different MHC-II loci, denominated HLA-DRB1, DRB3/4/5, DP and DQ. Allelic variation is large, and most people are heterozygous at each locus, thus expressing up to 8 relevant MHC-II alleles. CD4 T cell responses strictly require that the antigenic peptide binds to the relevant MHC-II.
(§2) To identify peptides that could potentially be used in human patients, 30 peptides were screened for binding to 26 HLA alleles by competition assay.

DPB1*14:01 = test: Peptide binding to HLA-DP allele, competition assay; parameters: species or system human
Source text: as §1, §2

DPB1*02:01 = test: as above; parameters: species or system human
Source text: as §1, §2

DRB3*02:02 = DRB3*02:02 (Homo sapiens, UniProt P01903+P79483, A212P/D57E/F66Y/L67A/R103Q/R218S/R40L/S89Y/T80R/V86D/Y55F/Y59H); test: Peptide binding to HLA-DR allele, competition assay
Source text: as §1, §2

DPB1*04:01 = molecular target: T1, DPB1*04:01 (Homo sapiens, UniProt P04440); test: Peptide binding to HLA-DP allele, competition assay
T1 sequence (P04440 30-258): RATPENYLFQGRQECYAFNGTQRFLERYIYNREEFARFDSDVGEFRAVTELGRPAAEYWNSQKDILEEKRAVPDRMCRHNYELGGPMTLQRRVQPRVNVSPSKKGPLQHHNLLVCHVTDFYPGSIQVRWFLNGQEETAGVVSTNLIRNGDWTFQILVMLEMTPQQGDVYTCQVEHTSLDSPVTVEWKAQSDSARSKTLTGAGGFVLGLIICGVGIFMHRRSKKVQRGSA
T1 sequence (P20036 29-260 partner): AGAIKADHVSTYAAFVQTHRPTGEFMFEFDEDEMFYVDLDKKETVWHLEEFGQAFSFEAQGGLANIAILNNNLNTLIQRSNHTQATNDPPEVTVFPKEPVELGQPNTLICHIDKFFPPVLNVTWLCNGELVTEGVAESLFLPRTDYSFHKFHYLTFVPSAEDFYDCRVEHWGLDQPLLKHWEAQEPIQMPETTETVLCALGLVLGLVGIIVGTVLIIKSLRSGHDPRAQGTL
Source text: as §1, §2

DQB1*05:01 = test: Peptide binding to HLA-DQ allele, competition assay; parameters: species or system human
Source text: as §1, §2

DPB1*05:01 = test: Peptide binding to HLA-DP allele, competition assay; parameters: species or system human
Source text: as §1, §2

HLA-DRB1*01:01 = HLA-DRB1*01:01 (Homo sapiens, UniProt P01903+P01911, A100R/D57E/F55L/F60I/F76Y/I96L/L162R/M171V/P40L/Q125E/R42F/V115G/Y59C); test: Peptide binding to HLA-DR allele, competition assay
Source text: as §1, §2

DRB1*11:01 = DRB1*11:01 (Homo sapiens, UniProt P01903+P01911, A100R/A169T/A87E/I96F/K41T/L162R/M171V/P40S/Q125H/Q178H/Q39Y/Q99D/R42S/S66Y/T262R/V115G/W38E); test: as above
Source text: as §1, §2

DRB1*09:01 = DRB1*09:01 (Homo sapiens, UniProt P01903+P01911, A100R/A103E/D57H/D86V/F55Y/F60I/F76Y/I96F/K127E/L162R/M171V/P40D/Q125H/Q99R/R33Q/R42F/S133A/S66N/T210M/V115G/W38K/Y107V/Y59G/Y89S); test: as above
Source text: as §1, §2

DRB1*13:02 = DRB1*13:02 (Homo sapiens, UniProt P01903+P01911, A100E/A169T/K41T/L162R/M171V/P40S/Q125H/Q178H/Q39Y/Q99D/R42S/S66N/T262R/V115G/W38E/Y61H); test: as above
Source text: as §1, §2

DRB4*01:01 = DRB4*01:01 (Homo sapiens, UniProt P01903+P13762, G164S); test: as above
Source text: as §1, §2

DPB1*03:01 = test: Peptide binding to HLA-DP allele, competition assay; parameters: species or system human
Source text: as §1, §2

DRB1*15:01 = DRB1*15:01 (Homo sapiens, UniProt P01903+P01911); test: Peptide binding to HLA-DR allele, competition assay
Source text: as §1, §2

DRB5*01:01 = DRB5*01:01 (Homo sapiens, UniProt P01903+Q30154); test: as above
Source text: as §1, §2

DPB1*04:02 = test: Peptide binding to HLA-DP allele, competition assay; parameters: species or system human
Source text: as §1, §2

DRB1*04:01 = DRB1*04:01 (Homo sapiens, UniProt P01903+P01911, A100K/A169T/F76Y/I96L/K127E/L162R/M171V/N62H/P40V/Q125Y/R42H/S133A/S149N/S66Y/V115G/V209L/W38E); test: Peptide binding to HLA-DR allele, competition assay
Source text: as §1, §2

DRB1*04:05 = DRB1*04:05 (Homo sapiens, UniProt P01903+P01911, A100R/A169T/D86S/F76Y/I96L/K127E/L162R/M171V/N62H/P40V/Q125Y/R42H/S133A/S149N/S66Y/V115G/V209L/W38E); test: as above
Source text: as §1, §2

Row | SMILES | pIC50 (DQB1*06:02) | pIC50 (DPB1*14:01) | pIC50 (DPB1*02:01) | pIC50 (DRB3*02:02) | pIC50 (DPB1*04:01) | pIC50 (DQB1*05:01) | pIC50 (DPB1*05:01) | pIC50 (HLA-DRB1*01:01) | pIC50 (DRB1*11:01) | pIC50 (DRB1*09:01) | pIC50 (DRB1*13:02) | pIC50 (DRB4*01:01) | pIC50 (DPB1*03:01) | pIC50 (DRB1*15:01) | pIC50 (DRB5*01:01) | pIC50 (DPB1*04:02) | pIC50 (DRB1*04:01) | pIC50 (DRB1*04:05)
1 | CC(C)C[C@H](NC(=O)[C@H](CCC(N)=O)NC(=O)[C@H](C)NC(=O)[C@H](CC(N)=O)NC(=O)[C@H](C)NC(=O)[C@H](CCC(N)=O)NC(=O)[C@H](Cc1ccccc1)NC(=O)[C@H](CC(=O)O)NC(=O)[C@H](Cc1ccccc1)NC(=O)[C@H](CC(N)=O)NC(=O)[C@H](CC(C)C)NC(=O)[C@@H](NC(=O)[C@H](CCC(=O)O)NC(=O)[C@@H](N)CC(C)C)C(C)C)C(=O)N[C@@H](CO)C(=O)O [Peptide 3563.0017] |  |  | 7.07 |  | 6.72 |  | 4.40 | 7.34 |  |  |  | 7.03 |  |  |  | 6.23 | 7.26 | 
2 | CC[C@H](C)[C@H](NC(=O)[C@H](C)NC(=O)[C@H](CCCCN)NC(=O)[C@H](Cc1ccccc1)NC(=O)[C@@H](NC(=O)[C@H](CCC(=O)O)NC(=O)[C@@H](N)CCC(N)=O)C(C)C)C(=O)N[C@@H](CCC(N)=O)C(=O)N[C@@H](CO)C(=O)N[C@@H](CC(C)C)C(=O)N[C@@H](CCCCN)C(=O)N[C@H](C(=O)N[C@H](C(=O)N[C@@H](CCC(=O)O)C(=O)N[C@H](C(=O)O)C(C)C)[C@@H](C)O)[C@@H](C)O [Peptide 3563.0024] |  | 5.75 | 6.70 |  | 7.80 |  | 6.43 |  |  | 7.34 |  |  |  |  |  | 7.03 |  | 7.74
3 | CSCC[C@H](NC(=O)[C@H](CC(C)C)NC(=O)[C@H](Cc1ccc(O)cc1)NC(=O)[C@H](C)NC(=O)[C@H](C)NC(=O)[C@H](CC(C)C)NC(=O)[C@H](CCCNC(=N)N)NC(=O)[C@H](CCCCN)NC(=O)[C@@H](N)CC(=O)O)C(=O)N[C@@H](CC(C)C)C(=O)N[C@@H](CCSC)C(=O)N[C@@H](CCCNC(=N)N)C(=O)N[C@@H](CO)C(=O)N1CCC[C@H]1C(=O)N[C@@H](CO)C(=O)O [Peptide 3563.0004] | 7.89 | 6.99 | 5.78 |  | 6.43 | 7.28 | 8.39 |  |  | 7.13 |  | 7.92 | 7.59 |  |  | 7.64 | 8.15 | 

The next lines start with the values.

Row | pIC50 (DQB1*06:02) | pIC50 (DPB1*14:01) | pIC50 (DPB1*02:01) | pIC50 (DRB3*02:02) | pIC50 (DPB1*04:01) | pIC50 (DQB1*05:01) | pIC50 (DPB1*05:01) | pIC50 (HLA-DRB1*01:01) | pIC50 (DRB1*11:01) | pIC50 (DRB1*09:01) | pIC50 (DRB1*13:02) | pIC50 (DRB4*01:01) | pIC50 (DPB1*03:01) | pIC50 (DRB1*15:01) | pIC50 (DRB5*01:01) | pIC50 (DPB1*04:02) | pIC50 (DRB1*04:01) | pIC50 (DRB1*04:05) | SMILES
4 | 6.21 | 5.73 | 6.89 | 6.96 | 7.05 |  |  |  |  |  |  |  |  |  |  |  |  |  | CC[C@H](C)[C@H](NC(=O)[C@H](CC(C)C)NC(=O)[C@H](CCCCN)NC(=O)[C@H](CO)NC(=O)CNC(=O)[C@@H](N)C(C)C)C(=O)N[C@H](C(=O)N[C@@H](C)C(=O)N[C@@H](CCSC)C(=O)N[C@@H](CO)C(=O)N[C@@H](CO)C(=O)N[C@@H](Cc1c[nH]c2ccccc12)C(=O)N[C@@H](CC(C)C)C(=O)N[C@@H](CCC(N)=O)C(=O)N[C@@H](CCCCN)C(=O)O)C(C)C [Peptide 3563.0008]
5 | 6.61 | 6.74 |  |  |  | 5.58 | 8.01 | 8.15 | 5.92 | 7.77 | 8.96 |  |  |  |  |  |  |  | CC(C)C[C@H](NC(=O)CNC(=O)[C@@H](N)CCCNC(=N)N)C(=O)N[C@@H](CCCCN)C(=O)N[C@@H](CC(C)C)C(=O)N[C@@H](C)C(=O)N[C@H](C(=O)N[C@@H](C)C(=O)N[C@@H](CC(C)C)C(=O)N[C@@H](CO)C(=O)N[C@@H](CC(C)C)C(=O)N[C@@H](CO)C(=O)N[C@@H](CC(N)=O)C(=O)N[C@@H](CCCCN)C(=O)N[C@@H](Cc1ccccc1)C(=O)O)[C@@H](C)O [Peptide 3563.0020]
6 | 5.21 | 5.68 | 7.21 | 8.48 |  |  | 5.34 |  |  |  |  | 8.48 |  |  |  |  |  |  | CC[C@H](C)[C@H](NC(=O)[C@H](CC(N)=O)NC(=O)[C@H](CCCCN)NC(=O)[C@H](CC(C)C)NC(=O)[C@H](Cc1ccccc1)NC(=O)[C@H](CCCNC(=N)N)NC(=O)[C@H](CC(C)C)NC(=O)[C@H](Cc1c[nH]cn1)NC(=O)CNC(=O)[C@@H](N)CCC(=O)O)C(=O)N[C@H](C(=O)N[C@@H](CC(C)C)C(=O)N1CCC[C@H]1C(=O)N[C@H](C(=O)N[C@@H](Cc1ccc(O)cc1)C(=O)O)C(C)C)[C@@H](C)CC [Peptide 3563.0021]
7 | 7.18 | 6.88 |  |  |  |  |  |  |  |  |  |  | 7.05 | 8.96 | 7.74 |  |  |  | CC[C@H](C)[C@H](N)C(=O)N[C@@H](CCCCN)C(=O)N[C@@H](Cc1c[nH]cn1)C(=O)N[C@H](C(=O)N[C@@H](Cc1ccc(O)cc1)C(=O)N[C@@H](C)C(=O)N[C@H](C(=O)N[C@@H](CO)C(=O)N[C@@H](CO)C(=O)N[C@@H](C)C(=O)N[C@@H](C)C(=O)N[C@@H](CC(C)C)C(=O)N[C@@H](CO)C(=O)N[C@@H](C)C(=O)N[C@@H](CO)C(=O)O)[C@@H](C)CC)[C@@H](C)CC [Peptide 3563.0009]
